Experimental data: patent US20040192638A1, “Method and composition for prolonging the residence time of drugs in the gut” (priority 2001, published 2004)
Entries after “also recorded” stand apart in the source; their conditions may differ.

What was measured:
Type in all cases: in vivo
[1] = test system: rat small intestine; assay: Sustained Spike Potential (SSP) myoelectric bioassay, infusion into the duodenum via cannula in instrumented uninfected rats
Description: Outbred male rats (Sprague Dawley, Harlan Sprague Dawley, Inc., Indianapolis, Ind.) were housed singly and maintained on a 12-hour light/12-hour dark cycle. All rats used in the bioassay procedure were uninfected with tapeworms. The design and surgical implantation procedure of the intestinal extracellular bipolar electrodes have been described previously (Dwinell et al., 1994, 1997). Briefly, four bipolar electrodes were surgically sutured to the intestinal serosa of each rat according to the methods of Dwinell et at. (1994), which is incorporated herein by reference. Three electrodes (J1-J3) were implanted on the jejunum at 10 cm intervals, with the first electrode (J1) placed 10 cm caudal from the ligament of Treitz and proceeding caudally with J2 and J3. A fourth electrode (designated “I” because it was placed within the ileum) was placed 20 cm orad from the ileo-caecal junction. In addition, a cannula was implanted with one end residing in the lumen of the mid-duodenum, whereas the other end was exteriorized to allow infusion of test fractions.
All compounds tested were infused into the duodenum via the cannula. Compounds were delivered in 0.2 ml aliquots followed immediately by a 0.2 ml saline cannula rinse. These volumes were used in order to prevent muscle contraction due to stretch from larger bolus volumes. To observe the induction of SSP, intestinal myoelectric activity was recorded for 90 minutes following infusion.
Consistent with the protocol of Dwinell et al. (1994), intestinal myoelectric activity was not recorded for the first five days after implantation surgery. Control recordings were taken after this period to assure the return of normal myoelectric patterns of the MMC following the cessation of post-surgical ileus. Periodic “control” recordings were made with saline on the intervening days between the tests with tapeworm-conditioned medium (TCM) or its fractions.
In vivo intestinal myoelectric activity was recorded with a polygraph chart recorder (Grass Instruments, Quincy, Mass.). The myoelectric signal from each electrode was simultaneously recorded on paper and by a personal computer with an I/O board and WINDAQ software (Dataq Instruments, Akron, Ohio) connected to the polygraph recorder by an analog-to-digital converter (Dataq Instruments).
Food was removed on each recording day at 0800 hour to prevent animal feeding and the subsequent disruption of the interdigestive myoelectric pattern. Recording occurred between 1300 and 1900 hours. All recording sessions for each animal were at least 1.5 hour in duration, and all animals were recorded while awake and unrestrained. Vehicle (0.9% saline or in some cases RPMI 1640) was used as control for test substances.
Five days after electrode and cannula implantation surgery, three consecutive baseline 90-minute recordings were made on separate days in each rat to confirm the presence of normal intestinal myoelectric activity at the end of the immediate post surgical period.
Secreted compounds were infused via the duodenal cannula and the frequency of the sustained spike potential (SSP) electrical patterns was determined from recordings of myoelectric activity. […] The third and final phase of the MMC (marked by arrowheads) is a period of >90% spiking and represents a series of contractions migrating orad to caudad along the small intestine. The caudad migration of phase III between electrode sites propels lumenal content toward the caecum.
Cyclic nucleotides were degraded to their 5′-monophosphate derivatives by incubation with bovine brain phosphodiesterase (PDE; cat. # P-0134, Sigma Co., St. Louis, Mo.).

[2] = test system: rat small intestine; assay: Effect of cGMP combined with succinate on SSP frequency (Example 3); conditions: for SSP stimulation (in words): FIG. 5
Procedure: In order to measure intestinal motility, rats were prepared as per […] et al. (1994) as described in the prior Examples. Briefly, electrodes were implanted along the length of the intestine to allow observation of intestinal muscle contraction, and a cannula was implanted in the duodenum to permit the infusion of test substances. After normal intestinal motility was established in each rat, test substances were infused through the duodenal cannula, and myoelectric recordings were used to observe the occurrence of SSP.

[3] = test system: Male Ross x Ross broiler chicks; assay: Effect of cGMP on feed conversion ratio in broiler chicks
Procedure: cGMP for use in this Example was manufactured by ICN Biomedicals (Irvine, Calif.), and purchased from Fisher Scientific (Hampton, N.H.). Male Ross x Ross broiler chicks were obtained from Sunnyside Hatchery (Beaver Dam, Wis.). Standard commercial chick mash was used as a base ration. cGMP with and without succinate was dissolved in water and sprayed as a mist onto the basal diet during continuous mixing. […] Diets were prepared 1 to 3 days prior to the start of the experiment and stored in individual plastic buckets (1 bucket/replicate). Chicks were randomly placed into treatment groups with 5 birds per replicate. Chicks were weighed as a group, so each pen of 5 animals represents n=1. Treatments and replicates were randomly assigned (via a random number generator) to pens. Chicks were fed ad libitum and checked daily. Feed intake and pen weight were recorded weekly. Feed conversion ratios were calculated as grams of feed consumed/grams of weight gain in the animals. […] The results are shown in Table 2 for two sets of experiments. Experiment 1 was to run for 3 weeks, but was accidentally disrupted during the third week.

[4] = Experiment 1, per pen of 5 chicks, 10 mg cGMP/kg of feed and/or 100 mg succinate/kg of feed, terminated after week 2
[5] = Experiment 2, grams of feed consumed/grams of weight gain

Nc1nc2c(ncn2C2OC3COP(=O)(O)OC3C2O)c(=O)[nH]1 (stereo not shown) [cGMP, guanosine cyclic 3′, 5′-hydrogen phosphate]
SSP/Hr (MEAN ± SE) ([1]; 100 nM, 0.2 ml infused into duodenum): 0 SSP/Hr
SSP/Hr (MEAN ± SE) ([1]; 1 μM, 0.2 ml infused into duodenum): 0 SSP/Hr
SSP/Hr (MEAN ± SE) ([1]; 10 μM, 0.2 ml infused into duodenum): 0.5 ± 0.25 SSP/Hr
SSP/Hr (MEAN ± SE) ([1]; 100 μM, 0.2 ml infused into duodenum): 0.66 ± 0.38 SSP/Hr
SSP/Hr (MEAN ± SE) ([1]; 1 mM, 0.2 ml infused into duodenum): 0.80 ± 0.18 SSP/Hr
SSP/Hr (MEAN ± SE) ([1]; 5 mM, 0.2 ml infused into duodenum): 1.60 ± 0.38 SSP/Hr
SSP/Hr (MEAN ± SE) ([1]; 10 mM + 1 Unit PDE (incubated 30° C. 16 hours before infusion)): 0 SSP/Hr
ability to stimulate SSP after incubation with phosphodiesterase (PDE) before infusion (in words) ([1]; 10 mM cGMP solution or TCM incubated in PDE before bioassay): lose their ability to stimulate SSP; also recorded: control values
SSP/Hr (MEAN ± SE) ([1]; 10 mM, 0.2 ml infused into duodenum): 2.0 ± 0.38 SSP/Hr
SSP frequency compared with saline controls / background (in words) ([1]; 10 mM, 0.2 ml infused into intestinal lumen, FIG. 3): significantly increased
SSP/Hr (MEAN ± SE) ([1]; 10 mM, boiled before infusion): 1.0 ± 0.47 SSP/Hr
SSP/Hr (MEAN ± SE) ([1]; 100 mM, 0.2 ml infused into duodenum): 1.50 ± 0.46 SSP/Hr
SSP/Hr (MEAN ± SE) ([1]; 0.5 M, 0.2 ml infused into duodenum): 1.25 ± 0.41 SSP/Hr
lumenal dose range with significant increase in SSP frequency ([1]; FIG. 2, versus saline, Student t-test): 1 to 100 mM
stimulation / induction of SSP above background levels (in words) ([1]; infused into intestinal lumen, concentration not stated at the place): initiated SSP myoelectric patterns
SSP stimulation (in words) ([2]; 2.8 nM cGMP alone): did not stimulate SSP above the background; also recorded: generally does not produce
SSP stimulation (in words) ([2]; 10 mM cGMP alone): produces
concentrations of cGMP alone incapable of stimulating SSP ([2]; cGMP infused alone): below 1 mM
cGMP concentration required to activate SSP response ([2]; without succinate): about 10 mM
Feed Conversion Ration FCR ([3]; Experiment 1, grams of feed consumed/grams of weight gain): 1.535 ± 0.094
Feed Intake [3, 4]: 2334 ± 144
Gain [3, 4]: 1548 ± 65
FCR Week 1 [3, 5]: 1.635 ± 0.093
FCR Week 2 [3, 5]: 1.459 ± 0.058
FCR Week 3 [3, 5]: 1.580 ± 0.059
